Patent US20230416830A1, “METHODS AND COMPOSITIONS FOR PREDICTING AND TREATING UVEAL MELANOMA” (INSERM (INSTITUT NATIONAL DE LA SANTÉ ET DE LA RECHERCHE …, priority 2020, published 2023)

Tests used:
Format in all cases: cell-based, human
NOTCH reporter activity = assay: NOTCH reporter vector assay in OMM1 uveal melanoma cells
Protocol: (§1) FIG. 9: NOTCH signaling controls uveal melanoma cell growth and migration. (A) OMIVI1 uveal melanoma cells were transfected with the NOTCH reporter vector before being treated or not with DLL4 1μg/ml in absence or presence of BMS-906024 10 μM. Data shown are mean +SD of three experiments. ***p<0.001 and *p<0.05. (B) 3D spheroid assays of 92.1 cells exposed to DAPT 10μg/ml or BMS-906024 lOpM for 96 h. Surface of the imaged spheroid area was determined. ***p<0.001. Representative images are shown. (C) Boyden chambers experiments with 92.1 cells treated or not with DLL4 1 μg/ml. Data shown are mean+SD of three experiments. **p<0.01. Representative images are shown.
Human uveal melanoma cell lines Me127051, 92.152, OMM2.551 were grown in RPMI glutamax supplemented with 10% FBS, OMM153 were grown in DMEM glutamax supplemented with Sodium Pyruvate 1%, MEM Essential Vitamin Mixture 1%, NEAA 1%, Hepes 1%, 10% FBS, MP46, MP65 (from ATCC) were grown in DMEM/F12 w/Glutamine 10% FBS, Glutamax 2mM, Insulin-Transferin-Selenium 0.5x at 37° C. in a humidified atmosphere containing 5% CO2. LipofectamineTM RNAiMAX and opti-MEM medium were purchased from Invitrogen (San Diego, CA, USA). BMS-906024 (#BM0018) and DAPT (#5942) were obtained from Sigma, DLL4 from R&D systems (#1506-D4-050).

[1] = system: 92.1 primary uveal melanoma cells; assay: 3D spheroid (melanosphere) assay of 92.1 cells; settings: 96 h
Description: FIG. 8: HES6 knockdown inhibits uveal melanoma anchorage-dependent and—independent cell growth. (A) Q-RT-PCR showing HES6 level in OMM2.5 metastatic melanoma cells transfected with a control siRNA (siCtl) or two different pools of multiple siRNA targeting HES6 (siHES6#1 and siHES6#2). (B-C) Colony formation assay of OMM2.5 and OMM1 metastatic uveal melanoma cells treated with control siRNA or with two different pools of multiple siRNA targeting HES6 (siHES6#1 and siHES6#2). Representative images are shown. (D) 92.1 primary uveal melanoma cells expressing doxycycline-inducible control or two different HES6 shRNA in presence of 1 μg/ml doxycycline for 72 hrs. Efficiency is shown by RT-QPCR. ***p<0.001 (E) Colony formation assay of 92.1 primary uveal melanoma cells expressing doxycycline-inducible control or two different HES6 shRNA. Representative images are shown. Crystal violet was next dissolved and measured at 490 nm. ***p<0.001. (F) 3D spheroid assays of 92.1 cells expressing doxycycline-inducible control or HES6 shRNA in presence of 1 μg/ml doxycycline for 96 hrs. Surface of the imaged spheroid area was determined. ***p<0.001. Representative images are shown.
FIG. 9: NOTCH signaling controls uveal melanoma cell growth and migration. […] Surface of the imaged spheroid area was determined. ***p<0.001. […]

92.1 cells = assay: Boyden chamber migration of 92.1 cells; settings: DLL4 1 μg/ml
Protocol: as §1
FIG. 11: HES6 inhibition impairs metastatic uveal melanoma cells motile ability. Migration of 92.1 cells expressing doxycycline-inducible control or HES6 shRNA in presence of 1 μg/ml doxycycline for 48 hrs in presence or absence of DLL4 1 μg/ml. ***p<0.001. Representative images are shown.
(§2) Cell migration was assessed using a modified Boyden chamber assay with 8-μm pore filter inserts for 24-well plates (BD Bioscience). Cells were seeded on the upper chamber of a trans-well and DMEM 7% FBS placed into the lower chamber. Cells adherent to the underside of the filters were fixed with 4% PFA, stained with 0.4% crystal violet and five random fields at x20 magnification were counted. […]

[2] = system: Me1270 primary uveal melanoma cells; assay: Migration of Me1270 cells; settings: Me1270 cells expressing doxycycline-inducible HES6 shRNA, doxycycline 1 μg/ml 48 hrs, DLL4 1 μg/ml
Description: FIG. 6: HES6 expression in primary uveal melanomas controls the motile ability. (A) Relative expression of HES/HEY gene family (TCGA dataset). (B) Human primary uveal Me1270 melanoma cells were transfected with a control siRNA (siCtl) or two different pools of multiple siRNA targeting HES6 (siHES6#1 and siHES6#2). siRNA efficacy is shown by RT-QPCR. (C) Migration Me1270 cells transfected with the indicated siRNA. ***p<0.001. Representative images are shown. (D) Colony formation assay of Me1270 cells transfected with the indicated siRNA. ***p<0.001. Representative images are shown.
FIG. 10: HES6 signaling is a key driver of aggressive and motile phenotypes. Migration of Me1270 cells expressing doxycycline-inducible control or HES6 shRNA in presence of 1 μg/ml doxycycline for 48 hrs in presence or absence of DLL4 1 *g/ml. ***p<0.001. Representative images are shown.
Briefly, a single pulse of 50 nM of HES6 siRNA (Dharmacon L-008408-00-0005 and […]
as §2, with “Cells were seeded on the upper chamber of a trans-well and DMEM 7% FBS placed into the lower chamber.” left out

CN1C(=O)[C@@H](NC(=O)[C@H](CCC(F)(F)F)[C@H](CCC(F)(F)F)C(N)=O)N=C(c2ccccc2)c2ccccc21 [BMS-906024, reference compound]
effect on DLL4-increased NOTCH reporter activity (NOTCH reporter activity; DLL4 1μg/ml in presence of BMS-906024 10 μM): inhibited | melanosphere formation (surface of spheroid area) ([1]; BMS-906024 lOpM): reduced

O=C(O)CN(CC(=O)O)CC(O)CN(CC(=O)O)CC(=O)O [DAPT, diaminopropanol tetraacetic acid]
melanosphere formation (surface of spheroid area) ([1]; DAPT 10μg/ml): reduced

DLL4: Delta-like ligand 4, NOTCH natural ligand, from R&D systems (#1506-D4-050)
NOTCH reporter activity (NOTCH reporter activity; DLL4 1μg/ml): increased | migration in HES6 knockdown cells (92.1 cells; 92.1 cells expressing doxycycline-inducible HES6 shRNA, doxycycline 1 μg/ml 48 hrs): could no longer increased migration | uveal melanoma cell migration (92.1 cells; 92.1 cells): enhanced | migration in HES6 knockdown cells [2]: could no longer increased migration
